These results are taken from patent US10577322B2, “5-methoxytryptophan and its derivatives and uses thereof” (National Health Research Institutes, priority 2015, dated 2020).

Test [1] has as its system LPS-induced cytokine production. The test is classed as cell-based, mouse. The procedure:
Mouse RAW264.7 macrophages were from the American Type Culture Collection and cultured in DMEM containing 10% FBS. Cells were typically pre-incubated with or without 5-MTP (Sigma-Aldrich) for 30 min before LPS treatment, unless specified otherwise. The duration of LPS (100 ng/ml) treatment varied depending on the experiment.
Cytokine levels in the culture supernatants and serum were determined in microtiter plates (96-well) by a specific sandwich ELISA (Biosource) as previously described (Wu, J. Y. & Kuo, C. C. Pivotal role of ADP-ribosylation factor 6 in Toll-like receptor 9-mediated immune signaling. J Biol Chem 287, 4323-4334 (2012)) (Lee, G. L., et al. TLR 2 induces vascular smooth muscle cell migration through cAMP response element-binding protein-mediated interleukin-6 production. Arterioscler Thromb Vasc Biol 32, 2751-2760 (2012); hereinafter, Lee, G. L., et al.).

Another test relates to Myeloperoxidase (MPO). As to the kind of experiment: MPO activity assay in lung tissues. The test is classed as in vivo, mice. The following applies: 5-MTP 23.4 mg/kg, 16 h. The procedure:
Myeloperoxidase (MPO) activity of lung tissue was assayed by Myeloperoxidase fluorometric detection kit (Enzo Life Sciences). In brief, lung tissue specimens were homogenized by Tissuelyser II (Qiagen) in tissue protein extraction buffer (pH 7.4 25 mM Tris buffer, 150 mM NaCl, 0.5% sodium deoxycholate, 2% NP-40 and 0.2% SDS), and centrifuged at 12,000×g for […] at 4° C. The supernatants were removed and the pellets were homogenized by Tissuelyser II for 30 seconds in 1 ml assay buffer with 0.5% hexadecyltrimethylammonium, and then samples were frozen, thawed three times, andcentrifuged at 8,000×g for 20 min. Collected supernatants and standard were mixed with reaction cocktail (50 μM detection reagent and 20 μM hydrogen peroxide in 1X assay buffer at room temperature in the dark. After 30 min incubation, MPO activity was determined by measuring the fluorescence intensity at excitation 530 nm and emission at 600 nm in a fluorescent plate reader.
In addition, MPO activity was determined in lung tissues of mice treated with saline or LPS in the presence or absence of 5-MTP (23.4 mg/kg) for 16 h (n=6 mice/group).

In a further test the test system is ligated carotid arteries. As to the kind of experiment: Neointima formation model of carotid artery ligation. The test is classed as in vivo, mice. The following applies: 100 mg/kg IP 3 times a week, four weeks after ligation. The method, then:
Approximately 12-week-old male C57BL/6 wild-type mice ational Laboratory Animal Center, Taiwan) were subjected to a neointima formation model by ligating the left common carotid artery (LCCA). The Institutional. Animal Care and Use Committee of National Health Research Institutes, Taiwan approved all experimental procedures (#NHRI-IACUC-101144-A). Mice were anesthetized with tribromoethanol solution at a dose of 250 mg/kg by IP injection. After assessing the level of anesthesia by checking the pedal reflex, the LCCA was exposed through a midline incision in the neck. […] Following surgery, mice were treated with vehicle (PBS) or 100 mg/kg of 5-MTP (Sigma, M4001) by IP injection 3 times a week. 5-MTP was dissolved in 0.05 N HCl (made in PBS) first, pH adjusted to 7.4 by NaOH, and then a stock solution of 6.5 mg/mL was prepared with PBS. The stock solution was then sterilized by filtering through a 0.22 μm-filter before use. At indicated time points (4, 7, and 28 d after surgery), mice were anesthetized with tribromoethanol solution (500-750 mg/kg), perfused with saline, followed by 10% neutral-buffered-formalin. The contralateral control (right common carotid artery) and ligated LCCA were then carefully dissected, excised, and immersed in 10% formalin before processing and embedding in paraffin. […]

On to `COc1ccc2[nH]cc(C[C@H](N)C(=O)O)c2c1` [5-MTP, 5-methoxytryptophan], for which the “Suppressive activity in LPS-induced cytokine production” value in test [1] is reported as “+”. Moreover, in the test on Myeloperoxidase (MPO), the “lung MPO activity” value is reported as “reduced neutrophil infiltration to the basal level”. In the test with ligated carotid arteries, the intima/media area ratio was 0.58±0.11 and the intimal thickening result was “reduced”.
